Measured values taken from the NIST ThermoML archive (doi:10.1016/j.jct.2015.01.004).
Where “and” joins values, the source holds several entries; their conditions need not be identical. Equal entries are not always repeated. Numbers after ± are expanded uncertainties.

Assay: molar heat capacity at constant pressure; xn = mol fraction of the nth substance listed
Details: 100 kPa

[Si] [silicon] + [Li]
molar heat capacity at constant pressure (213.05 K, Crystal of intercomponent compound 2, relaxation calorimeter, x2 = 0.804): 19.41 ± 0.79 J/K/mol
molar heat capacity at constant pressure (217.1 K, Crystal of intercomponent compound 2, relaxation calorimeter, x2 = 0.804): 19.42 ± 0.79 J/K/mol
molar heat capacity at constant pressure (217.11 K, Crystal of intercomponent compound 1, relaxation calorimetry, x2 = 0.81): 19.04 ± 0.77 J/K/mol
molar heat capacity at constant pressure (217.12 K, Crystal of intercomponent compound 2, relaxation calorimeter, x2 = 0.804): 19.59 ± 0.8 J/K/mol
molar heat capacity at constant pressure (220 K, Crystal of intercomponent compound 1, relaxation calorimetry + DSC, x2 = 0.81): 19.27 ± 0.78 J/K/mol
molar heat capacity at constant pressure (220 K, Crystal of intercomponent compound 2, relaxation calorimetry + DSC, x2 = 0.804): 19.69 ± 0.8 J/K/mol
molar heat capacity at constant pressure (221.11 K, Crystal of intercomponent compound 2, relaxation calorimeter, x2 = 0.804): 19.62 ± 0.8 J/K/mol
molar heat capacity at constant pressure (221.12 K, Crystal of intercomponent compound 1, relaxation calorimetry, x2 = 0.81): 19.24 ± 0.78 J/K/mol
molar heat capacity at constant pressure (221.13 K, Crystal of intercomponent compound 2, relaxation calorimeter, x2 = 0.804): 19.84 ± 0.81 J/K/mol
molar heat capacity at constant pressure (225.23 K, Crystal of intercomponent compound 2, relaxation calorimeter, x2 = 0.804): 19.86 ± 0.81 J/K/mol
molar heat capacity at constant pressure (225.24 K, Crystal of intercomponent compound 1, relaxation calorimetry, x2 = 0.81): 19.46 ± 0.79 J/K/mol
molar heat capacity at constant pressure (225.25 K, Crystal of intercomponent compound 2, relaxation calorimeter, x2 = 0.804): 20.03 ± 0.81 J/K/mol
molar heat capacity at constant pressure (229.28 K, Crystal of intercomponent compound 2, relaxation calorimeter, x2 = 0.804): 20.05 ± 0.81 J/K/mol
molar heat capacity at constant pressure (229.3 K, Crystal of intercomponent compound 1, relaxation calorimetry, x2 = 0.81): 19.66 ± 0.8 J/K/mol
molar heat capacity at constant pressure (229.31 K, Crystal of intercomponent compound 2, relaxation calorimeter, x2 = 0.804): 20.22 ± 0.82 J/K/mol
molar heat capacity at constant pressure (230 K, Crystal of intercomponent compound 1, relaxation calorimetry + DSC, x2 = 0.81): 19.74 ± 0.8 J/K/mol
molar heat capacity at constant pressure (230 K, Crystal of intercomponent compound 2, relaxation calorimetry + DSC, x2 = 0.804): 20.16 ± 0.82 J/K/mol
molar heat capacity at constant pressure (233.29 K, Crystal of intercomponent compound 2, relaxation calorimeter, x2 = 0.804): 20.23 ± 0.82 J/K/mol
molar heat capacity at constant pressure (233.3 K, Crystal of intercomponent compound 1, relaxation calorimetry, x2 = 0.81): 19.83 ± 0.81 J/K/mol
molar heat capacity at constant pressure (233.31 K, Crystal of intercomponent compound 2, relaxation calorimeter, x2 = 0.804): 20.38 ± 0.83 J/K/mol
molar heat capacity at constant pressure (237.4 K, Crystal of intercomponent compound 2, relaxation calorimeter, x2 = 0.804): 20.4 ± 0.83 J/K/mol
molar heat capacity at constant pressure (237.41 K, Crystal of intercomponent compound 1, relaxation calorimetry, x2 = 0.81): 20 ± 0.81 J/K/mol
molar heat capacity at constant pressure (237.43 K, Crystal of intercomponent compound 2, relaxation calorimeter, x2 = 0.804): 20.54 ± 0.83 J/K/mol
molar heat capacity at constant pressure (240 K, Crystal of intercomponent compound 1, relaxation calorimetry + DSC, x2 = 0.81): 20.18 ± 0.82 J/K/mol
molar heat capacity at constant pressure (240 K, Crystal of intercomponent compound 2, relaxation calorimetry + DSC, x2 = 0.804): 20.58 ± 0.84 J/K/mol
molar heat capacity at constant pressure (241.46 K, Crystal of intercomponent compound 2, relaxation calorimeter, x2 = 0.804): 20.62 ± 0.84 J/K/mol
molar heat capacity at constant pressure (241.48 K, Crystal of intercomponent compound 1, relaxation calorimetry, x2 = 0.81): 20.17 ± 0.82 J/K/mol
molar heat capacity at constant pressure (241.49 K, Crystal of intercomponent compound 2, relaxation calorimeter, x2 = 0.804): 20.73 ± 0.84 J/K/mol
molar heat capacity at constant pressure (245.47 K, Crystal of intercomponent compound 2, relaxation calorimeter, x2 = 0.804): 20.87 ± 0.85 J/K/mol
molar heat capacity at constant pressure (245.48 K, Crystal of intercomponent compound 1, relaxation calorimetry, x2 = 0.81): 20.3 ± 0.82 J/K/mol
molar heat capacity at constant pressure (245.5 K, Crystal of intercomponent compound 2, relaxation calorimeter, x2 = 0.804): 20.93 ± 0.85 J/K/mol
molar heat capacity at constant pressure (249.59 K, Crystal of intercomponent compound 2, relaxation calorimeter, x2 = 0.804): 21 ± 0.85 J/K/mol
molar heat capacity at constant pressure (249.6 K, Crystal of intercomponent compound 1, relaxation calorimetry, x2 = 0.81): 20.44 ± 0.83 J/K/mol
molar heat capacity at constant pressure (249.62 K, Crystal of intercomponent compound 2, relaxation calorimeter, x2 = 0.804): 21.13 ± 0.86 J/K/mol
molar heat capacity at constant pressure (250 K, Crystal of intercomponent compound 1, relaxation calorimetry + DSC, x2 = 0.81): 20.59 ± 0.84 J/K/mol
molar heat capacity at constant pressure (250 K, Crystal of intercomponent compound 2, relaxation calorimetry + DSC, x2 = 0.804): 20.99 ± 0.85 J/K/mol
molar heat capacity at constant pressure (253.66 K, Crystal of intercomponent compound 2, relaxation calorimeter, x2 = 0.804): 21.14 ± 0.86 J/K/mol
molar heat capacity at constant pressure (253.67 K, Crystal of intercomponent compound 1, relaxation calorimetry, x2 = 0.81): 20.58 ± 0.84 J/K/mol
molar heat capacity at constant pressure (253.68 K, Crystal of intercomponent compound 2, relaxation calorimeter, x2 = 0.804): 21.27 ± 0.86 J/K/mol
molar heat capacity at constant pressure (257.65 K, Crystal of intercomponent compound 2, relaxation calorimeter, x2 = 0.804): 21.3 ± 0.87 J/K/mol
molar heat capacity at constant pressure (257.66 K, Crystal of intercomponent compound 1, relaxation calorimetry, x2 = 0.81): 20.7 ± 0.84 J/K/mol
molar heat capacity at constant pressure (257.68 K, Crystal of intercomponent compound 2, relaxation calorimeter, x2 = 0.804): 21.42 ± 0.87 J/K/mol
molar heat capacity at constant pressure (260 K, Crystal of intercomponent compound 1, relaxation calorimetry + DSC, x2 = 0.81): 20.98 ± 0.85 J/K/mol
molar heat capacity at constant pressure (260 K, Crystal of intercomponent compound 2, relaxation calorimetry + DSC, x2 = 0.804): 21.37 ± 0.87 J/K/mol
molar heat capacity at constant pressure (261.78 K, Crystal of intercomponent compound 1, relaxation calorimetry, x2 = 0.81): 20.8 ± 0.84 J/K/mol
molar heat capacity at constant pressure (261.78 K, Crystal of intercomponent compound 2, relaxation calorimeter, x2 = 0.804): 21.42 ± 0.87 J/K/mol
molar heat capacity at constant pressure (261.79 K, Crystal of intercomponent compound 2, relaxation calorimeter, x2 = 0.804): 21.54 ± 0.87 J/K/mol
molar heat capacity at constant pressure (265.83 K, Crystal of intercomponent compound 2, relaxation calorimeter, x2 = 0.804): 21.55 ± 0.88 J/K/mol
molar heat capacity at constant pressure (265.84 K, Crystal of intercomponent compound 1, relaxation calorimetry, x2 = 0.81): 20.92 ± 0.85 J/K/mol
molar heat capacity at constant pressure (265.86 K, Crystal of intercomponent compound 2, relaxation calorimeter, x2 = 0.804): 21.64 ± 0.88 J/K/mol
molar heat capacity at constant pressure (269.82 K, Crystal of intercomponent compound 2, relaxation calorimeter, x2 = 0.804): 21.67 ± 0.88 J/K/mol
molar heat capacity at constant pressure (269.85 K, Crystal of intercomponent compound 1, relaxation calorimetry, x2 = 0.81): 21.06 ± 0.86 J/K/mol
molar heat capacity at constant pressure (269.85 K, Crystal of intercomponent compound 2, relaxation calorimeter, x2 = 0.804): 21.75 ± 0.88 J/K/mol
molar heat capacity at constant pressure (270 K, Crystal of intercomponent compound 1, relaxation calorimetry + DSC, x2 = 0.81): 21.36 ± 0.87 J/K/mol
molar heat capacity at constant pressure (270 K, Crystal of intercomponent compound 2, relaxation calorimetry + DSC, x2 = 0.804): 21.73 ± 0.88 J/K/mol
molar heat capacity at constant pressure (273.88 K, Crystal of intercomponent compound 2, relaxation calorimeter, x2 = 0.804): 21.84 ± 0.89 J/K/mol
molar heat capacity at constant pressure (273.9 K, Crystal of intercomponent compound 1, relaxation calorimetry, x2 = 0.81): 21.15 ± 0.86 J/K/mol
molar heat capacity at constant pressure (273.91 K, Crystal of intercomponent compound 2, relaxation calorimeter, x2 = 0.804): 21.9 ± 0.89 J/K/mol
molar heat capacity at constant pressure (278.02 K, Crystal of intercomponent compound 1, relaxation calorimetry, x2 = 0.81): 21.25 ± 0.86 J/K/mol
molar heat capacity at constant pressure (278.02 K, Crystal of intercomponent compound 2, relaxation calorimeter, x2 = 0.804): 21.93 ± 0.89 J/K/mol
molar heat capacity at constant pressure (278.04 K, Crystal of intercomponent compound 2, relaxation calorimeter, x2 = 0.804): 22 ± 0.89 J/K/mol
molar heat capacity at constant pressure (280 K, Crystal of intercomponent compound 1, relaxation calorimetry + DSC, x2 = 0.81): 21.72 ± 0.88 J/K/mol
molar heat capacity at constant pressure (280 K, Crystal of intercomponent compound 2, relaxation calorimetry + DSC, x2 = 0.804): 22.09 ± 0.9 J/K/mol
molar heat capacity at constant pressure (282.07 K, Crystal of intercomponent compound 2, relaxation calorimeter, x2 = 0.804): 22.06 ± 0.9 J/K/mol
molar heat capacity at constant pressure (282.08 K, Crystal of intercomponent compound 1, relaxation calorimetry, x2 = 0.81): 21.37 ± 0.87 J/K/mol
molar heat capacity at constant pressure (282.09 K, Crystal of intercomponent compound 2, relaxation calorimeter, x2 = 0.804): 22.11 ± 0.9 J/K/mol
molar heat capacity at constant pressure (284.87 K, Crystal of intercomponent compound 1, Small sample (50 mg) DSC, x2 = 0.81): 22.13 ± 0.54 J/K/mol and 22.16 ± 0.54 J/K/mol
molar heat capacity at constant pressure (284.87 K, Crystal of intercomponent compound 2, Small sample (50 mg) DSC, x2 = 0.804): 22.41 ± 0.55 J/K/mol
molar heat capacity at constant pressure (286.06 K, Crystal of intercomponent compound 2, relaxation calorimeter, x2 = 0.804): 22.16 ± 0.9 J/K/mol
molar heat capacity at constant pressure (286.08 K, Crystal of intercomponent compound 1, relaxation calorimetry, x2 = 0.81): 21.42 ± 0.87 J/K/mol
molar heat capacity at constant pressure (286.08 K, Crystal of intercomponent compound 2, relaxation calorimeter, x2 = 0.804): 22.26 ± 0.9 J/K/mol
molar heat capacity at constant pressure (290 K, Crystal of intercomponent compound 1, relaxation calorimetry + DSC, x2 = 0.81): 22.08 ± 0.9 J/K/mol
molar heat capacity at constant pressure (290 K, Crystal of intercomponent compound 2, relaxation calorimetry + DSC, x2 = 0.804): 22.45 ± 0.91 J/K/mol
molar heat capacity at constant pressure (290.12 K, Crystal of intercomponent compound 1, relaxation calorimetry, x2 = 0.81): 21.52 ± 0.87 J/K/mol
molar heat capacity at constant pressure (290.13 K, Crystal of intercomponent compound 2, relaxation calorimeter, x2 = 0.804): 22.36 ± 0.91 J/K/mol
molar heat capacity at constant pressure (294.26 K, Crystal of intercomponent compound 1, relaxation calorimetry, x2 = 0.81): 21.6 ± 0.88 J/K/mol
molar heat capacity at constant pressure (294.27 K, Crystal of intercomponent compound 2, relaxation calorimeter, x2 = 0.804): 22.5 ± 0.91 J/K/mol
molar heat capacity at constant pressure (294.79 K, Crystal of intercomponent compound 2, Small sample (50 mg) DSC, x2 = 0.804): 22.86 ± 0.56 J/K/mol
molar heat capacity at constant pressure (294.8 K, Crystal of intercomponent compound 1, Small sample (50 mg) DSC, x2 = 0.81): 22.38 ± 0.55 J/K/mol and 22.54 ± 0.55 J/K/mol
molar heat capacity at constant pressure (298.15 K, Crystal of intercomponent compound 1, relaxation calorimetry + DSC, x2 = 0.81): 22.38 ± 0.91 J/K/mol
